The structures appear in SMILES notation.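 Test compounds were applied to cells in 96-well plates for 48 hours at 5 doses. Here, GI50 denotes the concentration required for 50% inhibition of growth.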 Active and inactive are the calls of the source. No stated cut-off is given here; in the data, active = GI50 up to about 1.1 µM and inactive = higher.

Test in all cases: growth of human tumour cells (NCI), 48 h
Assay [1] relates to 786-0.
Assay [2] deals with A498.
Assay [3] deals with A549.
Assay [4] concerns CCRF-CEM.
Assay [5] has as its system DU-145.
Assay [6] deals with HT-29.
Assay [7] has as its system KM12.
In assay [8] the test system is MDA-MB-231.
In assay [9] the test system is MDA-MB-435.
The test system of assay [10] is OVCAR-5.
Assay [11] has as its system RPMI-8226.
The subject of assay [12] is SF-539.
Assay [13] relates to SK-MEL-28.
The test system of assay [14] is SK-MEL-5.
Assay [15] deals with SK-OV-3.
The subject of assay [16] is SN12C.
Assay [17] concerns T47D.
Assay [18] deals with U-251.
Assay [19] concerns UACC-257.
The subject of assay [20] is LOX IMVI.

Take `C/C1=C\CC[C@@]2(C)O[C@@H]2C[C@@H]2[C@H](C/C(C)=C/CC1)OC(=O)C21CC1`: the GI50 was 74.5 µM (inactive) in [1]; > 100 µM (inactive) in assay [2]; > 100 µM (inactive) in [3]; 20.6 µM (inactive) in assay [4]; 59.7 µM (inactive) in [5]; > 100 µM (inactive) in assay [6]. In addition, the GI50 in [7] is > 100 µM (inactive); in assay [8], > 100 µM (inactive); in assay [9] it was 41.5 µM (inactive); in assay [10] it was > 100 µM (inactive); in assay [11], 12.1 µM (inactive); in assay [12], > 100 µM (inactive). For the same compound, the GI50 was > 100 µM (inactive) in assay [13]; 93.5 µM (inactive) in [14]; > 100 µM (inactive) in assay [15]; 60.3 µM (inactive) in [16]; > 100 µM (inactive) in assay [17]; 28.8 µM (inactive) in assay [18]. Also, the GI50 in [19] was > 100 µM (inactive).

On to `CC(=O)c1c(-c2ccc(Cl)cc2)c(C#N)c(=S)n(C2OC(CO)C(O)C(O)C2O)c1C` (stereo unspecified), for which the GI50 in assay [1] was 63.2 µM (inactive); in assay [2], 50.7 µM (inactive); in [3], 71 µM (inactive); in assay [4], 25.9 µM (inactive); in assay [5], > 100 µM (inactive); in [6], 30.1 µM (inactive). Also, the GI50 in assay [7] is 40.4 µM (inactive); in assay [20], 30.1 µM (inactive); in assay [8] it was 37 µM (inactive); in assay [9], 37.8 µM (inactive); in assay [10], > 100 µM (inactive); in assay [12], 46.7 µM (inactive). The GI50 is 34.1 µM (inactive) in assay [13]; 37.2 µM (inactive) in [14]; 82.8 µM (inactive) in [15]; 52.6 µM (inactive) in assay [16]; 49.3 µM (inactive) in assay [17]; 36.8 µM (inactive) in [18]. Further, the GI50 in assay [19] is 82.4 µM (inactive).

`C[C@]12OC[C@H](c3ccccc3)N1C(=O)C1[C@H]2CC12SCCS2` (stereo partly specified): the GI50 in assay [1], in assay [2], in [3], in assay [4], in [5] and in assay [6] was > 100 µM (inactive) in each case. For the same compound, the GI50 in [7], in assay [8], in assay [9], in assay [10], in assay [11] and in assay [12] was > 100 µM (inactive) throughout. The GI50 in [13], in assay [14], in [15], in [16], in [17] and in assay [18] was > 100 µM (inactive) throughout. In addition, in assay [19], the GI50 was > 100 µM (inactive).

Turning to `COc1cc(/C=C/c2nc(NC(=S)Nc3ccccc3)nnc2C)cc(OC)c1OC`, the GI50 in assay [1] was 28.3 µM (inactive); in [2], 27.8 µM (inactive); in [3] it was 23.8 µM (inactive); in assay [4], 13.5 µM (inactive); in assay [5], 34 µM (inactive); in assay [6], 14.7 µM (inactive). For the same compound, the GI50 in [7] is 14.5 µM (inactive); in assay [20] it was 37.2 µM (inactive); in assay [8], 33 µM (inactive); in assay [9] it was 38.4 µM (inactive); in [10], 31.6 µM (inactive); in assay [11], 22.7 µM (inactive). Besides, the GI50 in [13] is > 100 µM (inactive); in [14] it was 14.7 µM (inactive); in [15] it was 29.6 µM (inactive); in assay [16], 39.1 µM (inactive); in assay [17], 19.7 µM (inactive); in [18], 31 µM (inactive). The GI50 in [19] was 30.3 µM (inactive).

`Cc1cc2c(c(=O)n1C)SCC2`: the GI50 in assay [1], in assay [2], in assay [3], in assay [4], in assay [5] and in [6] was > 100 µM (inactive) throughout. Moreover, the GI50 in assay [7], in [20], in [8], in [9], in assay [10] and in [11] was > 100 µM (inactive) each time. The GI50 in assay [13], in [14], in assay [15], in assay [16], in assay [17] and in assay [18] was > 100 µM (inactive) each time. For the same compound, the GI50 in assay [19] was > 100 µM (inactive).

For `C/C=C\C(CC(=O)NCC(=O)c1c[nH]c2ccccc12)CC(=O)OC` (stereo unspecified), the GI50 in assay [1] is > 100 µM (inactive); in assay [2] it was > 100 µM (inactive); in [3], > 100 µM (inactive); in assay [4], 75.2 µM (inactive); in [5], > 100 µM (inactive); in [6], > 100 µM (inactive). Besides, the GI50 in [7], in assay [8], in [9], in assay [10], in assay [11] and in [13] was > 100 µM (inactive) in each case. Also, the GI50 in [14], in [15], in [17], in [18] and in assay [19] was > 100 µM (inactive) in each case.

In the case of `CC(=O)O[C@H]1C(=O)[C@@]2(C)[C@H]([C@H](OC(=O)c3ccccc3)[C@@]3(O)C[C@H](O)C(C)=C1C3(C)C)[C@]1(OC(C)=O)CO[C@@H]1C[C@@H]2O`, the GI50 in assay [1] was 51.5 µM (inactive); in assay [3], 73.3 µM (inactive); in [4], 46.2 µM (inactive); in assay [5], 34.7 µM (inactive); in assay [6] it was 23.3 µM (inactive); in assay [7], 15.2 µM (inactive). Besides, the GI50 was 45.3 µM (inactive) in [20]; 45.1 µM (inactive) in assay [8]; 11.9 µM (inactive) in [9]; 63.5 µM (inactive) in assay [10]; 13.7 µM (inactive) in assay [11]; 32.1 µM (inactive) in assay [12]. Also, the GI50 is 64.9 µM (inactive) in [13]; 35.8 µM (inactive) in assay [14]; 22.7 µM (inactive) in assay [15]; 49.4 µM (inactive) in assay [16]; > 100 µM (inactive) in assay [17]; 45.9 µM (inactive) in assay [18]. In addition, the GI50 in assay [19] was 83.6 µM (inactive).

`COC1/C=C/C(C)C(C(C)C(OC)C(C)CCC(=O)C(C)C(CC(=O)O)OC)OC(=O)/C=C/C=C(\C)CC(OC)CC2=CC(=O)O[C@H](C2)C(C)C(OC)CC(OC)/C=C/C(C)C(OC)C1` (stereo partly specified): the GI50 in [1] is 0.286 µM (active); in assay [2] it was 0.24 µM (active); in assay [3], 0.299 µM (active); in assay [4] it was 0.191 µM (active); in assay [5], 0.548 µM (active); in assay [6], 0.916 µM (active). In addition, the GI50 in [7] was 0.452 µM (active); in assay [8], 0.45 µM (active); in [9], 0.265 µM (active); in assay [10], 1.02 µM (active); in [11], 0.219 µM (active); in assay [13], 0.101 µM (active). Moreover, the GI50 in assay [14] is 0.455 µM (active); in [15], 0.695 µM (active); in assay [16], 2.96 µM (inactive); in [17], 1.16 µM (inactive); in [18], 0.195 µM (active); in [19] it was 0.449 µM (active).

Take `CC(=O)Oc1ccc2c3c1[C@H]1O[C@H]1c1cccc(c1-3)[C@@H]1O[C@H]21`: the GI50 in assay [1] was 2.21 µM (inactive); in assay [2] it was 11.9 µM (inactive); in assay [3] it was 7.33 µM (inactive); in assay [5] it was 7.83 µM (inactive); in assay [6], 7.18 µM (inactive); in assay [7], 12.6 µM (inactive). Besides, the GI50 in assay [20] was 1.81 µM (inactive); in assay [8] it was 12.8 µM (inactive); in [9] it was 2.04 µM (inactive); in [10] it was 14.8 µM (inactive); in assay [11] it was 3.22 µM (inactive); in [13] it was 8.15 µM (inactive). Besides, the GI50 in assay [14] was 4.25 µM (inactive); in assay [15], 14.6 µM (inactive); in [16] it was 2.69 µM (inactive); in [17], 2.09 µM (inactive); in [18] it was 4.99 µM (inactive); in assay [19], 8.22 µM (inactive).

Consider `Cc1cc(=O)oc2c(C)c3oc(CBr)cc3cc12`, for which the GI50 in assay [1] was 16.3 µM (inactive); in assay [3] it was 17.3 µM (inactive); in assay [4], 14.4 µM (inactive); in assay [5], 33.6 µM (inactive); in assay [6], 27.4 µM (inactive); in assay [7], 19.1 µM (inactive). In addition, the GI50 was 15.3 µM (inactive) in assay [20]; 29.4 µM (inactive) in assay [8]; 18.2 µM (inactive) in assay [9]; 16.8 µM (inactive) in assay [10]; 12.2 µM (inactive) in assay [11]; 20.9 µM (inactive) in assay [12]. Also, the GI50 in [13] was 19.8 µM (inactive); in assay [14], 13.2 µM (inactive); in assay [15], 27.4 µM (inactive); in [16] it was 19.5 µM (inactive); in [17] it was 17.3 µM (inactive); in assay [18] it was 19.8 µM (inactive). For the same compound, in assay [19], the GI50 is 22.8 µM (inactive).

The values are drawn from ChEMBL document CHEMBL1201862, “PubChem BioAssay data set” (2004).
